Measurements from ChEMBL document CHEMBL1201862, “PubChem BioAssay data set” (2004).
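In this assay, cells in 96-well plates receive the compound at five concentrations for 48 hours. Endpoints are linearly interpolated between the surrounding concentrations. The concentration for 50% growth inhibition is given as GI50.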 The source made the active and inactive calls. Cut-off read from the data, not from the text of the source: active = GI50 up to about 1.1 µM and inactive = higher.

How the values were obtained:
Test in all cases: growth of human tumour cells (NCI), 48 h
786-0 = test system: 786-0
LOX IMVI = test system: LOX IMVI
RXF 393 = test system: RXF 393
HCT-116 = test system: HCT-116
HOP-92 = test system: HOP-92
A498 = test system: A498
SK-MEL-5 = test system: SK-MEL-5
KM12 = test system: KM12
TK-10 = test system: TK-10
SW-620 = test system: SW-620
OVCAR-8 = test system: OVCAR-8
PC-3 = test system: PC-3
CAKI-1 = test system: CAKI-1
NCI-H226 = test system: NCI-H226
ACHN = test system: ACHN
SF-295 = test system: SF-295
UO-31 = test system: UO-31
HOP-62 = test system: HOP-62
CCRF-CEM = test system: CCRF-CEM
UACC-257 = test system: UACC-257
COLO 205 = test system: COLO 205
BT-549 = test system: BT-549
DU-145 = test system: DU-145
EKVX = test system: EKVX
SNB-75 = test system: SNB-75
U-251 = test system: U-251
MCF7 = test system: MCF7
SK-MEL-28 = test system: SK-MEL-28
OVCAR-3 = test system: OVCAR-3
SNB-19 = test system: SNB-19
NCI/ADR-RES = test system: NCI/ADR-RES
HCC 2998 = test system: HCC 2998
A549 = test system: A549
OVCAR-5 = test system: OVCAR-5
MDA-N = test system: MDA-N
MDA-MB-435 = test system: MDA-MB-435
HT-29 = test system: HT-29
MDA-MB-231 = test system: MDA-MB-231
K562 = test system: K562
M14 = test system: M14
NCI-H460 = test system: NCI-H460
Hs-578T = test system: Hs-578T
NCI-H23 = test system: NCI-H23
IGROV-1 = test system: IGROV-1
SK-MEL-2 = test system: SK-MEL-2
OVCAR-4 = test system: OVCAR-4
HCT-15 = test system: HCT-15
MOLT-4 = test system: MOLT-4
SK-OV-3 = test system: SK-OV-3
UACC-62 = test system: UACC-62
SF-268 = test system: SF-268
SF-539 = test system: SF-539
HL-60 = test system: HL-60
SN12C = test system: SN12C
NCI-H522 = test system: NCI-H522
SR = test system: SR
Malme-3M = test system: Malme-3M
RPMI-8226 = test system: RPMI-8226

COc1ccc(-c2csc(Cc3nc4c(Br)cc(Br)cc4c(=O)n3-c3ccc(OC)cc3)n2)cc1
GI50 (786-0): 28.3 µM (inactive) | GI50 (LOX IMVI): > 100 µM (inactive) | GI50 (RXF 393): > 100 µM (inactive) | GI50 (HCT-116): 30.4 µM (inactive) | GI50 (HOP-92): > 100 µM (inactive) | GI50 (A498): 45.3 µM (inactive) | GI50 (SK-MEL-5): 20.3 µM (inactive) | GI50 (KM12): 86.5 µM (inactive) | GI50 (TK-10): 56.6 µM (inactive) | GI50 (SW-620): 67 µM (inactive) | GI50 (OVCAR-8): > 100 µM (inactive) | GI50 (PC-3): 28.9 µM (inactive) | GI50 (CAKI-1): 94.4 µM (inactive) | GI50 (NCI-H226): > 100 µM (inactive) | GI50 (ACHN): 43.7 µM (inactive) | GI50 (SF-295): 59.4 µM (inactive) | GI50 (UO-31): 35.2 µM (inactive) | GI50 (HOP-62): > 100 µM (inactive) | GI50 (CCRF-CEM): < 0.01 µM (active) | GI50 (UACC-257): > 100 µM (inactive) | GI50 (COLO 205): 34.8 µM (inactive) | GI50 (BT-549): > 100 µM (inactive) | GI50 (DU-145): > 100 µM (inactive) | GI50 (EKVX): > 100 µM (inactive) | GI50 (SNB-75): > 100 µM (inactive) | GI50 (U-251): 30.3 µM (inactive) | GI50 (MCF7): 63.1 µM (inactive) | GI50 (SK-MEL-28): 24.3 µM (inactive) | GI50 (OVCAR-3): > 100 µM (inactive) | GI50 (SNB-19): 18.9 µM (inactive) | GI50 (NCI/ADR-RES): 50.9 µM (inactive) | GI50 (HCC 2998): > 100 µM (inactive) | GI50 (A549): 63.2 µM (inactive) | GI50 (OVCAR-5): 56.4 µM (inactive) | GI50 (MDA-N): 3.7 µM (inactive) | GI50 (MDA-MB-435): 15.9 µM (inactive) | GI50 (HT-29): 48.9 µM (inactive) | GI50 (MDA-MB-231): 45.7 µM (inactive) | GI50 (K562): 0.333 µM (active) | GI50 (M14): 20.9 µM (inactive) | GI50 (NCI-H460): 54 µM (inactive) | GI50 (Hs-578T): > 100 µM (inactive) | GI50 (NCI-H23): 96.2 µM (inactive) | GI50 (IGROV-1): 73.3 µM (inactive) | GI50 (SK-MEL-2): 48 µM (inactive) | GI50 (OVCAR-4): > 100 µM (inactive) | GI50 (HCT-15): 24 µM | GI50 (MOLT-4): 25.5 µM (inactive) | GI50 (SK-OV-3): 51.8 µM (inactive) | GI50 (UACC-62): 53.3 µM (inactive)

COc1ccc(/N=N/C(=NNC(=O)c2ccc(C)cc2)c2ccc(N(C)C)cc2)cc1
GI50 (786-0): 39.1 µM (inactive) | GI50 (LOX IMVI): 34.8 µM (inactive) | GI50 (RXF 393): 32 µM (inactive) | GI50 (HCT-116): 34.4 µM (inactive) | GI50 (HOP-92): 41.5 µM (inactive) | GI50 (A498): 52 µM (inactive) | GI50 (SF-268): > 85.7 µM (inactive) | GI50 (SK-MEL-5): 27.2 µM (inactive) | GI50 (KM12): 30.1 µM (inactive) | GI50 (SF-539): > 100 µM (inactive) | GI50 (TK-10): > 100 µM (inactive) | GI50 (SW-620): 56.8 µM (inactive) | GI50 (OVCAR-8): 40.3 µM (inactive) | GI50 (PC-3): 57.7 µM (inactive) | GI50 (CAKI-1): > 91.8 µM (inactive) | GI50 (HL-60): 2.32 µM (inactive) | GI50 (NCI-H226): 39.8 µM (inactive) | GI50 (ACHN): 35.1 µM (inactive) | GI50 (SF-295): 28.4 µM (inactive) | GI50 (UO-31): 52.2 µM (inactive) | GI50 (SN12C): 56.6 µM (inactive) | GI50 (HOP-62): 49.1 µM (inactive) | GI50 (NCI-H522): 28.9 µM (inactive) | GI50 (CCRF-CEM): 14 µM (inactive) | GI50 (UACC-257): 33.3 µM (inactive) | GI50 (COLO 205): 6.84 µM (inactive) | GI50 (BT-549): 27.7 µM (inactive) | GI50 (DU-145): 25.1 µM (inactive) | GI50 (SR): 23.1 µM (inactive) | GI50 (EKVX): 37.7 µM (inactive) | GI50 (SNB-75): 87.3 µM (inactive) | GI50 (U-251): 63.7 µM (inactive) | GI50 (MCF7): 17.1 µM (inactive) | GI50 (SK-MEL-28): > 59.7 µM (inactive) | GI50 (OVCAR-3): 28.4 µM (inactive) | GI50 (SNB-19): 61.2 µM (inactive) | GI50 (NCI/ADR-RES): 33.8 µM (inactive) | GI50 (Malme-3M): 34.6 µM (inactive) | GI50 (HCC 2998): 35.3 µM (inactive) | GI50 (A549): 48.3 µM (inactive) | GI50 (OVCAR-5): > 85.9 µM (inactive) | GI50 (RPMI-8226): 17.5 µM (inactive) | GI50 (MDA-N): 23.8 µM (inactive) | GI50 (MDA-MB-435): 20.1 µM (inactive) | GI50 (HT-29): 30.3 µM (inactive) | GI50 (MDA-MB-231): 64.4 µM (inactive) | GI50 (K562): 29.4 µM (inactive) | GI50 (M14): 43.1 µM (inactive) | GI50 (NCI-H460): 39.7 µM (inactive) | GI50 (Hs-578T): > 100 µM (inactive) | GI50 (NCI-H23): 26.4 µM (inactive) | GI50 (IGROV-1): 59.6 µM (inactive) | GI50 (SK-MEL-2): 50.8 µM (inactive) | GI50 (OVCAR-4): 31.8 µM (inactive) | GI50 (HCT-15): 32.4 µM | GI50 (MOLT-4): 20.9 µM (inactive) | GI50 (SK-OV-3): 31.8 µM (inactive) | GI50 (UACC-62): 25.1 µM (inactive)

C=C1CN2CC(=C)CN(C1)CS(=O)(=O)N1CC(=C)CN(CC(=C)C1)S(=O)(=O)N1CC(=C)CN(CC(=C)C1)S(=O)(=O)C2
GI50 (786-0): 18.7 µM (inactive) | GI50 (LOX IMVI): > 100 µM (inactive) | GI50 (RXF 393): 19.5 µM (inactive) | GI50 (HCT-116): 51.3 µM (inactive) | GI50 (HOP-92): 31.3 µM (inactive) | GI50 (A498): 46.5 µM (inactive) | GI50 (SF-268): 25.6 µM (inactive) | GI50 (SK-MEL-5): 19.4 µM (inactive) | GI50 (KM12): 40.4 µM (inactive) | GI50 (SF-539): 15.6 µM (inactive) | GI50 (TK-10): 22.1 µM (inactive) | GI50 (SW-620): 71.8 µM (inactive) | GI50 (OVCAR-8): 40 µM (inactive) | GI50 (PC-3): 17.7 µM (inactive) | GI50 (CAKI-1): > 100 µM (inactive) | GI50 (HL-60): 35 µM (inactive) | GI50 (NCI-H226): 27.7 µM (inactive) | GI50 (ACHN): 47.1 µM (inactive) | GI50 (SF-295): 31.9 µM (inactive) | GI50 (UO-31): 42 µM (inactive) | GI50 (SN12C): 43.4 µM (inactive) | GI50 (HOP-62): 20.6 µM (inactive) | GI50 (NCI-H522): 32.4 µM (inactive) | GI50 (UACC-257): 23.6 µM (inactive) | GI50 (COLO 205): 34 µM (inactive) | GI50 (BT-549): 78.5 µM (inactive) | GI50 (DU-145): 38.3 µM (inactive) | GI50 (SR): > 100 µM (inactive) | GI50 (EKVX): 39.1 µM (inactive) | GI50 (U-251): 32.7 µM (inactive) | GI50 (MCF7): 50.1 µM (inactive) | GI50 (SK-MEL-28): 20.3 µM (inactive) | GI50 (OVCAR-3): > 100 µM (inactive) | GI50 (SNB-19): 40.7 µM (inactive) | GI50 (NCI/ADR-RES): > 100 µM (inactive) | GI50 (Malme-3M): 23.3 µM (inactive) | GI50 (HCC 2998): 17.7 µM (inactive) | GI50 (A549): 50.8 µM (inactive) | GI50 (OVCAR-5): 56.8 µM (inactive) | GI50 (RPMI-8226): 39.4 µM (inactive) | GI50 (MDA-N): 52.5 µM (inactive) | GI50 (MDA-MB-435): 43.9 µM (inactive) | GI50 (HT-29): > 100 µM (inactive) | GI50 (MDA-MB-231): 24.2 µM (inactive) | GI50 (K562): 56.5 µM (inactive) | GI50 (M14): 37.6 µM (inactive) | GI50 (NCI-H460): > 100 µM (inactive) | GI50 (Hs-578T): 25.4 µM (inactive) | GI50 (NCI-H23): 78.7 µM (inactive) | GI50 (IGROV-1): 59.8 µM (inactive) | GI50 (SK-MEL-2): 38.4 µM (inactive) | GI50 (OVCAR-4): 34.3 µM (inactive) | GI50 (HCT-15): > 100 µM | GI50 (MOLT-4): 67.1 µM (inactive) | GI50 (UACC-62): 93.3 µM (inactive)
